pEC50: −log10 of the molar value. “Also recorded” adds a separate entry of the source.
Tests used:
DIO mice = assay: Hepatic lipid accumulation, Oil Red O staining; type: in vivo, mouse
Description: FIG. 9(A). lean mice. FIG. 9(B). DIO mice, FIG. 9(C). berberine, and FIG. 9(D). DY319. Intracellular lipids were stained with Oil Red O and visualized by phase-contrast microscopy (×200 magnification).
Cells on day 7 were washed twice with PBS, fixed with 10% neutral buffered formalin for 1 h at room temperature, washed with PBS and then dried completely. The fixed cells were stained with Oil Red O in an isopropanol/distilled water (6:4) solution for 30 min at room temperature and then washed twice with distilled water. The stained lipid droplets were observed, and microscopic images were obtained from randomly selected fields under a phase contrast microscope (AX70; Olympus, Tokyo, Japan) equipped with a digital camera and processed using ImagePro Plus software (Media Cybernetics, Silver Spring, Md., USA).

[1] = target: T1, Gal4 DNA binding domain FXR ligand-binding domain fusion protein (Homo sapiens, UniProt Q96RI1); assay: Gal4 DBD-FXR LBD chimera transactivation assay in HEK 293 cells; type: cell-based; details: CDCA 100 μM, compounds 10 μM
T1 construct: expressed in transfected cells; host or cells: HEK 293
T1 sequence (Q96RI1 262-486 limits assumed): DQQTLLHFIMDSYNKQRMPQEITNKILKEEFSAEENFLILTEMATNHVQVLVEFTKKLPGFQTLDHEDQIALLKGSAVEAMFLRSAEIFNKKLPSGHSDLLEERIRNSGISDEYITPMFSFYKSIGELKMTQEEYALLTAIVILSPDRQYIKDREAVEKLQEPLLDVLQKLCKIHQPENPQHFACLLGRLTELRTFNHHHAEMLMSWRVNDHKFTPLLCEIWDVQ
Description: FIG. 10: Berberine derivatives inhibit FXR transactivation. HEK 293 cells were cotransfected with a luciferase reporter plasmid containing five copies of the Gal4 binding site and an expression vector for a Gal4 DNA binding domain FXR ligand-binding domain fusion protein, along with a CMX-β-gal internal control. CDCA: 100 μM, Compounds: 10 μM
In the presence of 100 μM CDCA, a concentration approximately threefold above that required for half-maximal activation of FXR, 10 μM selected berberine derivatives decreased FXR transactivation by nearly 50%.

TGR5 = target: T2, TGR5 (Homo sapiens, UniProt Q8TDU6); assay: TGR5 luciferase reporter (pCRE-luc) / cAMP assay in HEK293 cells overexpressing TGR5; type: cell-based
T2 construct: expressed in transfected cells
T2 sequence (Q8TDU6 1-330): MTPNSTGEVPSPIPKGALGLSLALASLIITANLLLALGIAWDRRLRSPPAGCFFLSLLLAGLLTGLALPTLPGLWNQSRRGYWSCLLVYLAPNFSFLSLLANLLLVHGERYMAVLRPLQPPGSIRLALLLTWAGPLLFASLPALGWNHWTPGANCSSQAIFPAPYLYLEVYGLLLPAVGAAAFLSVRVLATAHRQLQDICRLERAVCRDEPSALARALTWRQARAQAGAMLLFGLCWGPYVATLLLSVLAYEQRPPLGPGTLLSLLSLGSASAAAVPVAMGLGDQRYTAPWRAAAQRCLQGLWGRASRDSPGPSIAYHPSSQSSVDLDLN
Description: FIG. 1(A-C): FIG. 1(A) Chemical structure of berberine. FIG. 1(B) HEK293 cells lacking or stably-overexpressing TGR5 were treated with increasing doses of berberine for 16 h. TGR5-reporting activity was evaluated by luciferase assay (n=8). FIG. 1(C) The ability of berberine to activate TGR5 and FXR was evaluated in comparison to the synthetic FXR agonist GW4064. Ligands were used at a concentration of […] (n=4). Statistical analysis was performed using paired t-test. **p<0.05, ***p<0.001.
(§1) FIG. 2(A) HEK293 cells lacking or overexpressing TGR5 were treated with increasing doses of berberine for 16 hours and TGR5-reporting activity was evaluated using luciferase assays. FIG. 2(B) Ability of berberine to activate metabolic nuclear receptors was evaluated in comparison to native ligands. All ligands were used at a 10 μM concentration.
To potentially identify selective TGR5 modulators via a novel strategy, we synthesized and screened a focused chemical compounds library to search for derivatives that have higher affinity and/or higher selectivity to effectively modulate TGR5 activity in vivo. A focused small chemical compound library was evaluated in in vitro TGR5 assays to search for berberine-derived agonists that have higher affinity, potency, and/or higher selectivity for TGR5. The receptor binding assay was performed by measuring the level of cyclic AMP (cAMP) using TR-FRET (time-resolved fluorescence resonance energy transfer) assay. The level of intracellular cAMP was determined with Lance kit (PerkinElmer). Lithocholic acid was used as control ligand. Z′ factor was used to validate assays. Non-linear regression curves, without constraints, was performed by using four parameter equation and GraphPad Prism Software (GraphPad Inc.) to obtain the EC50 values. All drugs tested positive with TR-FRET for TGR5 binding affinities were evaluated in cell-based assays, using HEK293 cells stably over expressing human TGR5 transfected with the cAMP-sensitive reporter plasmid pCRE-Luc. Compounds were initially tested at doses of […] and the relative fold activation on TGR5 was determined. […]

[2] = tested on: metabolic nuclear receptors; assay: Activation of metabolic nuclear receptors compared with native ligands; type: cell-based; details: 10 μM
Description: as §1
Our current efforts are also aimed at extending these studies in vivo to murine type II diabetic models (using high fat diet feeding) with and without the TGR5 receptor. Confirmation of the berberine effect was evaluated using q-RT-PCR to assess activated TGR5 target genes including inflammatory gene expression and deiodinase-2.

COc1ccc2cc3[n+](cc2c1OC)CCc1cc2c(cc1-3)OCO2 [berberine]
Hepatic lipid accumulation (DIO mice): prevent hepatic lipid accumulation | Transactivation by GAL4 DBD-FXR LBD chimera [1]: did inhibit transactivation | TGR5-reporting effect in cells lacking TGR5 (TGR5; HEK293 cells lacking TGR5): lost | TGR5 activation (TGR5; HEK293 cells overexpressing TGR5, 16 h): is a ligand for the G protein-coupled receptor TGR5; also recorded: can activate the bile acid receptor TGR5 | pEC50 (TGR5; unpublished data, read-out: TGR5 agonist EC50): 6.34 | Activation of other metabolic nuclear receptors [2]: does not activate other metabolic nuclear receptors

From patent US10703761B2, “Bile acid receptor modulators and methods of use thereof” (City of Hope, priority 2016, dated 2020)
